One test relates to Jurkat. The test is described as follows: Jurkat cellular growth assay (MTT). The test is classed as cell-based. The conditions noted are these: Table 4, inhibit 50% of cellular growth, 40 hr incubation. How it is done:
(§1) Cellular assays were performed as follows:
(§2) Cell suspensions were prepared by harvesting cells from culture. Cell used in this test should be in later log phase growth and high viability. Cells were diluted in correct growth medium to 1.1× final concentration (from 50000 cell/ml to 200,000 cell/ml, depending on cell line). 90 μL was added to samples, diluted in PBS to 10× final concentration in flat-bottom 96-well plates (10 μL). After incubation for 40 hr in 37° C. 5% CO2 incubator, MTT 5 mg/ml (in PBS, filter sterile) 20 μl per well was added. The plates were returned to incubator for another 6 hours. Lysis Buffer (10% SDS, 0.01N HCl) 100 μl per well was added and the plate put back in incubator overnight. The plate was then read at 590 nm.

A further test deals with T-cell activation. The test is described as follows: T-cell activation cellular assay (MTT). The test is classed as cell-based. Conditions: Table 4, 40 hr incubation. How it is done: as §1, §2
A further test relates to TSU. The test is described as follows: TSU cellular growth assay (MTT). The test is classed as cell-based. The conditions noted are these: Table 4, inhibit 50% of cellular growth, 40 hr incubation. As for the experimental part:
as §1, §2

The next test deals with T1, JAK2 (Homo sapiens, UniProt O60674).
T1 construct: The kinase domain of humanJAK2 was amplified from U937mRNA; His tag (from pFastBac HTc vector; nickel chelate purification) (N); made in house; host or cells: baculovirus; virus made in Sf9, large-scale expression in High Five insect cells
T1 sequence (O60674 849-1124 limits assumed): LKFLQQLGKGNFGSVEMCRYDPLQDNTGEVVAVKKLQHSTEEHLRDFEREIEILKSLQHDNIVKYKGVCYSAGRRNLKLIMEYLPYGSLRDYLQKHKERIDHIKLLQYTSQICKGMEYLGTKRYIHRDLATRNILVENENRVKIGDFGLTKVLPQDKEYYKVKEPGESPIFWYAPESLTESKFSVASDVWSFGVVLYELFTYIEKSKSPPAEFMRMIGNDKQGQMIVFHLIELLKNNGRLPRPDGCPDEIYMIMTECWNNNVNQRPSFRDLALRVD
The test is described as follows: JAK2 kinase domain capture-based ELISA kinase assay. The test is classed as biochemical. Conditions: inhibit 50% of activity at 50 μM. In short, it runs like this: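 His-tagged human JAK2 kinase domain was baculovirus-expressed in High Five insect cells and nickel-purified. Phosphotyrosine was captured on avidin plates and detected by ELISA with peroxidase-linked PY20.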
On the technique in general: ELISA stands for enzyme-linked immunosorbent assay.

In the next test the target is T2, JAK1 (Homo sapiens, UniProt P23458).
T2 construct: The kinase domain of humanJAK1 was amplified from U937mRNA; His tag (from pFastBac HTb vector; nickel chelate purification) (N); made in house; host or cells: baculovirus; virus made in Sf9, large-scale expression in High Five insect cells
T2 sequence (P23458 875-1153 limits assumed): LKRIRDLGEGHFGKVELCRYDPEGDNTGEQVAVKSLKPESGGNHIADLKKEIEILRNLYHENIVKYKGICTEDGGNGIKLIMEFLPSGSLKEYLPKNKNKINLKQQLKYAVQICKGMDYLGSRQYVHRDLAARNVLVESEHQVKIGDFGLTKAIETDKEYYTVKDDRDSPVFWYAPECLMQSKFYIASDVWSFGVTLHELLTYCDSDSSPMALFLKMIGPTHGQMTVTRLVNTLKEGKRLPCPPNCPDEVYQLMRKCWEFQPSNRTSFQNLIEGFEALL
The test is described as follows: JAK1 kinase domain capture-based ELISA kinase assay. The test is classed as biochemical. Conditions: inhibit 50% of activity at 50 μM. In short, it runs like this:
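His-tagged human JAK1 kinase domain was expressed via baculovirus in High Five insect cells and purified on nickel chelate resin. Phosphotyrosine was quantified by ELISA with peroxidase-linked PY20 after capture on avidin plates.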

For the next test, the target named is T3, TYK2 (Homo sapiens, UniProt P29597).
T3 construct: The kinase domain of humanTYK2 was amplified from A549 mRNA; His tag (from pBlueBacHis2A vector; nickel chelate purification) (N); made in house; host or cells: baculovirus; virus made in Sf9, large-scale expression in High Five insect cells
T3 sequence (P29597 897-1176 limits assumed): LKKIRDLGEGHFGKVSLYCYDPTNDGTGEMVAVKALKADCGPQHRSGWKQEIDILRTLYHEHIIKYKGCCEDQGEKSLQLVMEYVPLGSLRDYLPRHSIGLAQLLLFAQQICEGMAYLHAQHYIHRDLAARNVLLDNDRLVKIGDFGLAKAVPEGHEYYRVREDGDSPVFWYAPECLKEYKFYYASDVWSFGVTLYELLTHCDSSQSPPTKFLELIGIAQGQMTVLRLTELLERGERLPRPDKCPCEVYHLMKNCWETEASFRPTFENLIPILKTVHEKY
The test is described as follows: TYK2 kinase domain capture-based ELISA kinase assay. The test is classed as biochemical. The conditions noted are these: inhibit 50% of activity at 50 μM. In short, it runs like this: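 His-tagged human TYK2 kinase domain expressed in baculovirus-infected insect cells and Ni-affinity purified. Biotinylated peptide substrate (5 μM final); phosphotyrosine captured on avidin plate and detected by peroxidase-linked PY20 antibody ELISA.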

Another test has as its target T4, JAK3 (Homo sapiens, UniProt P52333).
T4 construct: The kinase domain of humanJAK3 was amplified from U937mRNA; His tag (from pFastBac HTb vector; nickel chelate purification) (N); made in house; host or cells: baculovirus; virus made in Sf9, large-scale expression in High Five insect cells
The test is described as follows: JAK3 kinase domain capture-based ELISA kinase assay. The test is classed as biochemical. The conditions noted are these: inhibit 50% of activity at 50 μM. In short, it runs like this: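 The human JAK3 kinase domain was His-tagged, baculovirus-expressed in High Five cells and nickel-affinity purified. Tyrosine phosphorylation was quantified on avidin-coated ELISA plates with peroxidase-linked anti-phosphotyrosine antibody PY20.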

T4 sequence (P52333 822-1111 limits assumed): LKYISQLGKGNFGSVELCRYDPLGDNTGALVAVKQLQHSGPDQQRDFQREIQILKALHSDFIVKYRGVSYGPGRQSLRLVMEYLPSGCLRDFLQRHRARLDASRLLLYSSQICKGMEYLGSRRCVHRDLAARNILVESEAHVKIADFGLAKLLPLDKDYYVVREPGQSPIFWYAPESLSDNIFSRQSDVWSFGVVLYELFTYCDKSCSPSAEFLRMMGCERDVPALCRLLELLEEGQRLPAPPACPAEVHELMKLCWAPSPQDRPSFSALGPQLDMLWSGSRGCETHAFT

As for `COc1cc(-c2cncc(NCc3ccccc3)n2)cc(OC)c1OC` [drawing 56], the IC50 with Jurkat (Homo sapiens, Jurkat, 40 h) was found to be 20 µM; in the test on T-cell activation (T-cell, 40 h), 15 µM; with TSU it was 10 µM.
On the same counts, the results for `C[C@H](Nc1cncc(-c2cccc(CO)c2)n1)c1ccccc1` [drawing 58] are 20 µM, 20 µM and 15 µM.
With `COc1cncc(-c2cncc(NCC(C)(C)CO)n2)c1` [drawing 59], the half-maximal inhibitory concentration (IC50) came to 40 µM in the test with Jurkat (Homo sapiens, Jurkat, 40 h); 15 µM in the test with T-cell activation (T-cell, 40 h); 40 µM with TSU.
With `CC(=O)Nc1cccc(-c2cncc(NCc3cccc(Cl)c3)n2)c1` [drawing 60], the IC50 is 40 µM with Jurkat (Homo sapiens, Jurkat, 40 h); 30 µM in the test on T-cell activation (T-cell, 40 h); 5 µM in the test on TSU.
The matching figures for `COc1cncc(-c2cncc(NCc3ccc(F)cc3)n2)c1` [drawing 53]: 50 µM, 30 µM and 50 µM.
Regarding `COc1cc(-c2cncc(N[C@@H](C)c3ccccc3)n2)cc(OC)c1OC` [drawing 55], the values for the half-inhibitory concentration (IC50) with Jurkat, with T-cell activation and in the test on TSU were 20 µM, 10 µM and 10 µM, respectively.
Consider `COc1cc(-c2cncc(N[C@@H](C)c3ccccc3)n2)cc(OC)c1OC` [drawing 57], for which the IC50 was determined as 35 µM with Jurkat (Homo sapiens, Jurkat, 40 h); 12 µM in the test with T-cell activation (T-cell, 40 h); 10 µM in the test on TSU.
In the case of `COc1cncc(-c2cncc(N[C@@H](C)c3ccccc3)n2)c1` [drawing 54], the IC50 in the test on Jurkat (Homo sapiens, Jurkat, 40 h) turned out to be 50 µM; with T-cell activation (T-cell, 40 h) it was 15 µM; in the test with TSU, 20 µM.
With `COc1cc(-c2cn3ccnc3c(N[C@@H]3CCN(Cc4ccccc4)C3)n2)cc(OC)c1OC`, the IC50 against JAK2 (Table 5), at JAK1 (Table 5), on TYK2 (Table 5) and against JAK3 (Table 5) was under 50 µM throughout.
As for `CCCC/C=C/c1cn2ccnc2c(NC2CCC(O)CC2)n1` (stereo not drawn), the IC50 at JAK2 (Table 6) is over 50 µM; against JAK1 (Table 6) it was over 50 µM; against TYK2 (Table 6), over 50 µM; at JAK3 (Table 6), under 50 µM.
For `CN(C)C(=O)COc1cccc(Nc2nc(-c3ccccc3Cl)cn3ccnc23)c1`, the concentration for half-maximal inhibition (IC50) against JAK2 (Table 6), at JAK1 (Table 6), against TYK2 (Table 6) and against JAK3 (Table 6) was under 50 µM throughout.
With `O=C(O)c1ccc(-c2cn3ccnc3c(Nc3ccc4cn[nH]c4c3)n2)cc1`, the IC50 against JAK2 (Table 6) was under 50 µM; on JAK1 (Table 6), under 50 µM; against TYK2 (Table 6), under 50 µM; on JAK3 (Table 6), over 50 µM.
On to `Fc1ccc(-c2cn3ccnc3c(Nc3ccc4[nH]ccc4c3)n2)cc1Cl`, for which the IC50 on JAK2 (Table 6) is over 50 µM; against JAK1 (Table 6) it was under 50 µM; on TYK2 (Table 6), under 50 µM; at JAK3 (Table 6), over 50 µM.
For the compound `O=C(NCCO)c1ccc(-c2cn3ccnc3c(Nc3ccccc3)n2)cc1`, the IC50 against JAK2 (Table 6) is under 50 µM; against JAK1 (Table 6), under 50 µM; on TYK2 (Table 6) it was under 50 µM; against JAK3 (Table 6) it was over 50 µM.

Usually IC50 stands for the concentration at which inhibition is half-maximal. Higher therefore signals a need for much substance.
